Assay results as given in US20210330611A1, “THERAPY FOR NEUROLOGICAL DISEASES/DISORDERS” (priority 2020, published 2021).
Counter-ions that a name gives are not always drawn. Like-named read-outs stand apart in the source and are kept apart here.

Key:
[1] = test system: fibrin-induced microglia activation; test: Image-based assay of fibrin-induced microglia activation (HTS and dose response); format: cell-based, rat; conditions: primary microglia HTS, fibrin stimulation; for inhibition at 10 µM: Rattus norvegicus, Microglia, read-out: Fibrin % inhibition
primary rat microglia [2] = test system: primary rat microglia
[3] = test system: fibrin- and LPS-induced microglia activation; test: cells; format: cell-based, rat
primary rat microglia [4] = test: Cell toxicity (dead cells, size <150 μm2) in coated fibrin (cFib) assay; conditions: primary microglia HTS;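 note: share of dead cells sized under 150 µm2 at 10 µM in fibrin-stimulated microglia HTS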
[5] = test system: LPS-induced microglia activation; test: Image-based assay of LPS-induced microglia activation (HTS and dose response); format: cell-based, rat; conditions: for inhibition at 10 µM: Rattus norvegicus, Microglia, read-out: LPS % inhibition
[6] = cell size >800 μm2 as marker of activation
[7] = classification by fibrin and LPS inhibition in HTS
[8] = fibrin stimulation, cell size <150 μm2 as marker of toxicity
[9] = quadrant by fibrin and LPS inhibition, HTS at 10 μM
[10] = fibrin assay, dead cells (size <150 μm2)
[11] = primary microglia HTS, LPS stimulation, compounds at 10 μM
[12] = classification by fibrin and LPS inhibition, HTS at 10 μM
[13] = fibrin assay, dead cells (size <150 μm2), compounds at 10 μM

Row | Structure (SMILES) | inhibition at 10 µM [1, 6] [%] | LPS % cell toxicity (primary rat microglia [2]; rat) [%] | Quadrant (FIG. 5b) [3, 7] | Fibrin % cell toxicity (primary rat microglia [4]; [8]) [%] | inhibition at 10 µM ([5]; 48 h) [%] | inhibition at 10 µM ([1]; compounds at 10 μM) [%] | Quadrant (FIG. 5b) [3, 9] | Fibrin % cell toxicity (primary rat microglia [4]; [10]) [%] | inhibition at 10 µM [5, 11] [%] | further results
1 | C[C@H](N[C@@H](CCc1ccccc1)C(=O)O)C(=O)N1Cc2ccccc2C[C@H]1C(=O)O [Quinaprilat] | -5 | 0 | Q4 | 1 | 5 |  |  |  |  | 
2 | Cc1nc2ccccn2c(=O)c1CCN1CCC(C(=O)c2ccc(F)cc2)CC1 [Pirenperone] | 2 | 0 | Q4 | 1 | 20 |  |  |  |  | 
3 | CC1(C)S[C@@H]2[C@H](NC(=O)COc3ccccc3)C(=O)N2[C@H]1C(=O)O [Phenoxymethylpenicillin] | 0 | 0 | Q4 | 1 | 14 |  |  |  |  | 
4 | CN1C(C(=O)Nc2ccccn2)=C(O)c2ccccc2S1(=O)=O [Piroxicam] | 4 | 0 | Q4 | 1 | 19 |  |  |  |  | 
5 | O=C1C(O)=C([C@H]2CC[C@H](c3ccc(Cl)cc3)CC2)C(=O)c2ccccc21 [Atovaquone] |  | 0 |  |  |  | -15 | Q4 | 0 | 13 | 
6 | CC(=O)Nc1cccc(O)c1 [3-acetamidophenol] |  | 0 |  |  |  | 4 | Q4 | 1 | 5 | 
7 | NC(=O)C1(N2CCCCC2)CCN(CCCC(=O)c2ccc(F)cc2)CC1 [Pipamperone] | -4 | 0 | Q4 | 1 |  |  |  |  |  | inhibition at 10 µM ([5]; 48 h, primary microglia HTS, LPS stimulation, cell size >800 μm2 as marker of activation): 8%
8 | CC1=C(C)C(=O)C(C(CCCCCC(=O)O)c2ccccc2)=C(C)C1=O (stereo not drawn) [Seratrodast] | 20 | 0 | Q4 | 1 | 14 |  |  |  |  | 
9 | COC(=O)N[C@H](C(=O)N[C@@H](Cc1ccccc1)[C@@H](O)CN(Cc1ccc(-c2ccccn2)cc1)NC(=O)[C@@H](NC(=O)OC)C(C)(C)C)C(C)(C)C [Atazanavir] |  | 1 |  |  |  | -17 | Q4 | 0 | 13 | 
10 | CCN1C[C@]2(COC)[C@H](O)C[C@H](OC)[C@@]34[C@@H]5C[C@@]6(O)[C@H](OC(=O)c7ccccc7)[C@@H]5[C@@](OC(C)=O)([C@@H]([C@H](OC)[C@H]23)[C@@H]14)[C@@H](O)[C@@H]6OC [Aconitine] |  | 0 |  |  |  | -23 | Q4 | 0 | 12 | 
11 | CC(C)Nc1cccnc1N1CCN(C(=O)c2cc3cc(NS(C)(=O)=O)ccc3[nH]2)CC1 [Delavirdine] |  | 1 |  |  |  | -11 |  |  | 9 | Quadrant (FIG. 5b) [3, 12]: Q4; Fibrin % cell toxicity (primary rat microglia [4]; [13]): 1%
12 | Cc1cc(CC(C)CC(C)(C)C)n(O)c(=O)c1.NCCO (stereo not drawn) [Piroctone Olamine] |  |  | Q4 | 1 |  |  |  |  |  | Fibrin % inhibition [1, 6]: 44%; LPS % cell toxicity (primary rat microglia [2]): 1%; LPS % inhibition [5]: 39%
13 | CC(Cc1cccc(C(F)(F)F)c1)NCCOC(=O)c1ccccc1 (stereo not drawn) [Benfluorex] |  | 0 |  |  |  | -26 | Q4 | 1 | -3 | 
14 | CN(CCOc1ccc(NS(C)(=O)=O)cc1)CCc1ccc(NS(C)(=O)=O)cc1 [Dofetilide] |  | 0 |  |  |  | -26 |  |  | 5 | Quadrant (FIG. 5b) [3, 12]: Q4; Fibrin % cell toxicity (primary rat microglia [4]; [13]): 1%
15 | NC(=O)CN1CCCC1=O [Piracetam] | -21 | 0 | Q4 | 0 | 9 |  |  |  |  | 
16 | CC(=O)Nc1cc([As](=O)(O)O)ccc1O [Acetarsol] |  | 0 |  |  |  | -12 | Q4 | 0 | 13 | 
17 | C[C@H]1COc2c(C3(N)CC3)c(F)cc3c(=O)c(C(=O)O)cn1c23 [Pazufloxacin Mesylate, Pazufloxacin] |  |  | Q4 | 1 |  |  |  |  |  | Fibrin % inhibition [1, 6]: −10%; LPS % cell toxicity (primary rat microglia [2]): 0%; LPS % inhibition [5]: 11%
18 | CC(=O)Oc1cccc2c1C(=O)c1c(OC(C)=O)cc(C(=O)O)cc1C2=O [Diacerin] |  |  |  |  |  |  |  |  |  | Fibrin % inhibition ([1]; compounds at 10 μM): −30%; LPS % cell toxicity (primary rat microglia [2]): 0%; Quadrant (FIG. 5b) [3, 12]: Q4; Fibrin % cell toxicity (primary rat microglia [4]; [13]): 1%; LPS % inhibition [5, 11]: 10%
19 | c1ccc(CN(CC2=NCCN2)c2ccccc2)cc1 [Antazoline] |  | 1 |  |  |  | -2 | Q4 | 1 | 17 | 
20 | COc1cc2nc(N3CCN(C(=O)C4COc5ccccc5O4)CC3)nc(N)c2cc1OC (stereo not drawn) [Doxazosin] |  | 0 |  |  |  | -26 |  |  | 6 | Quadrant (FIG. 5b) [3, 12]: Q4; Fibrin % cell toxicity (primary rat microglia [4]; [13]): 0%
21 | CN[C@@H]1[C@H](O)[C@H](NC)[C@H]2O[C@@]3(O)C(=O)C[C@@H](C)O[C@H]3O[C@@H]2[C@H]1O [Spectinomycin] | 14 | 0 | Q4 | 0 | 19 |  |  |  |  | 
22 | CN1CCC(=C2c3ccccc3CCc3cccnc32)CC1 [Azatadine] |  | 0 |  |  |  | -9 | Q4 | 1 | 7 | 
23 | CCN(CC)C(=O)c1cccc(C)c1 [Deet, Diethyltoluamide] |  |  |  |  |  |  |  |  |  | Fibrin % inhibition ([1]; compounds at 10 μM): −38%; LPS % cell toxicity (primary rat microglia [2]): 0%; Quadrant (FIG. 5b) [3, 12]: Q4; Fibrin % cell toxicity (primary rat microglia [4]; [13]): 0%; LPS % inhibition [5, 11]: 6%
24 | CC1(C)S[C@@H]2[C@H](NC(=O)[C@H](N)c3ccccc3)C(=O)N2[C@H]1C(=O)O [Ampicillin] |  | 0 |  |  |  | 1 | Q4 | 1 | 15 | 
25 | CCCCC(=O)O[C@H]1CC[C@H]2[C@@H]3CCc4cc(O)ccc4[C@H]3CC[C@]12C [Estradiol Valerate] |  | 1 |  |  |  | -8 |  |  | 16 | Quadrant (FIG. 5b) [3, 12]: Q4; Fibrin % cell toxicity (primary rat microglia [4]; [13]): 1%
26 | N#C[C@@H]1C[C@@H]2C[C@@H]2N1C(=O)[C@@H](N)C12CC3CC(CC(O)(C3)C1)C2 [Saxagliptin] | 34 | 0 | Q4 | 1 | 38 |  |  |  |  | 
27 | CCn1cc(C(=O)O)c(=O)c2cnc(N3CCCC3)nc21 [Piromidic Acid] | -30 | 0 | Q4 | 1 | 7 |  |  |  |  | 
